Reference: patent US10328051B2, “Proline or proline derivatives for the treatment of dementia” (priority 2014, dated 2019)

Columns and labels:
[1] = Multiple dose ascending bioavailability and safety study (Phase I) with oral CHP (Study 0202-71); type: in vivo, human
Experimental: Example 5—Study Title: Multiple Dose Ascending Bioavailability and Safety Study Phase 1 with Oral CHP-GALMED Study No: 0202-71
12 healthy Caucasian males were recruited (age: 18-45 years).
Multiple doses of CHP were orally administered: • 4×2.0 g CHP per day, for 14 consecutive days (total daily dose=8.0 g CHP) • 4×3.0 g CHP per day, for 14 consecutive days (total daily dose=12.0 g CHP) Each dose level was administered to all volunteers.
Objectives • To determine the pharmacokinetic parameters and safety of CHP and THP in plasma following oral administration of multiple doses of 8 g CHP (4×2 g) and 12 g CHP (4×3 g)—4× daily, τ=6 h, respectively, in 12 healthy subjects on Day 1 and Day 14. • To model and simulate plasma concentrations of CHP and THP during Days 1 to 14.

[2] = test system: patients with mild or moderate Alzheimer's disease and Dementia; assay: Physical and cognitive conditions and Quality of Life questionnaire in patients with mild and moderate Alzheimer's disease (Example 13); type: in vivo, human
Source text: Example 13—Physical, and Cognitive Conditions—Alzheimer—Dementia Measure and Quality of Life (QoL) (FIGS. 13.1, 13.2, 13.3)
According to the ICH-GCP requirements for assessment of the Quality of Life (QoL) the validated questionnaire related to the disease e.g. cancer have been administered in the Phase II clinical studies: IPSS-A04, according to the example 12.1 in this invention.
Additional developed modules to these questionnaire provided greater details on the particular aspects of quality of life for those patients who participated in these clinical studies and diagnosed with mild and moderate Alzheimer's disease based on the presence of neuropsychiatric symptoms.
Diagnosis begun with a thorough physical exam and complete medical history including cerebrovascular disease and supplemental information from family members. Simple tests of mental function, including word recall, object naming, and number symbol marching, were used to track changes in the patient's cognitive ability. Ruling out depression was part of the diagnosis. Eight (8) patients over the age of 65 years met these criteria and have been selected for the assessment of CHP effects on the quality of life according to the items mentioned below including the cognitive status.
The administration of intravenous (iv) and oral CHP as monotherapy has been scheduled according to examples 12.1 in this invention in the patient's group G2—in study IPSS-A04.
The assessment of the QoL, physical, and cognitive conditions—Alzheimer-Dementia has been completed by the patients/care providers in the following intervals (FIGS. 13.1-13.3):
Pre-dose: Prior to the start of treatment with CHP as monotherapy
Start and completion of treatment with CHP: The questionnaire has been completed every 4 weeks after the start of treatment (Week 4, 8, 12, 16, 20, 24) and 4 weeks upon the completion of the treatment with CHP as monotherapy. A scale value is given for each response that reflects a good quality of life. […] A higher score reflects a higher quality of life. The 5 domains of Quality of Life—Alzheimer's Disease-Dementia included are: 1. Enjoyment of activities, 2. Feelings and mood, 3. Awareness of self, 4. Social Interactions, 5. Illness global QoL.
The following modified QLQ-C30 Version 1.0 has been used for the recording and assessment of the patient's conditions prior to and after the treatment with CHP.

[3] = Tissue distribution, bioaccumulation and pharmacokinetics following multiple dose administration of 3H-CHP in mice (Study IPSS E015); type: in vivo
Source text: Example 2. A Study in Mice on the Tissue Distribution, Bioaccumulation and Pharmacokinetics in Tissues, Connective and BrainTissues Following Multiple Dose Administration of ^3H-CHP Study No. IPSS E015 (FIG. 2)
According to this invention the study has been designed and performed as follows:
From each mouse sacrificed, the following organs & tissues samples were taken:
Liver, kidney, pancreas, limbic system, spinal fluid, brain stem, cerebrum, cerebellum, cartilage, ligaments and tendons (dense or fibrous connective tissue), loose connective tissue, and reticular connective tissue (supports lymph nodes, bone marrow, and spleen)

[4] = test system: adenocarcinoma and liver metastases, pancreatic cancer and bladder cancer; assay: Phase II clinical studies IPSS-A04, IPSS-B013, IPSS-D002: anti-tumour activity; type: in vivo, human
Source text: Title: Phase II—CHP as antitumour agent in patients with resected colorectal cancer and liver metastasis; 60 patients—Study IPSS-A04 (Example 12.1).
Title: Phase II—CHP in patients with locally advanced or metastatic pancreatic cancer—14 patients Study IPSS B013 (Example 12.2).
Title: Evaluation of safety and efficacy of CHP in patients with urogenital Cancer—25 patients—Study IPSS-D002 (Example 12.3).

[5] = test system: Collagen IV; assay: Measurement of Collagen-IV following multiple dose administration of CHP (Study 0202-71); type: in vivo, human; conditions: healthy volunteers, multiple oral doses of CHP for 14 days; P-value 0.0016 (t-test), 0.0047 (Wilcoxon-test)
Source text: Example 7—Study Title: Measurement of Collagen-IV Following Multiple Dose Administration of CHP-Study 0202-71—(FIG. 8)
Using a one-sample two-sided t-test, a P-value of 0.0016 was obtained, indicating a 99.8% that the decreased observed was not the result of chance. Using a one-sample two-sided Wilcoxon-test, a P-value of 0.0047 was obtained, indicating a 99.5% that the decreased observed was not the result of chance.

[6] = male, human, plasma, healthy subjects, oral 4×2.0 g CHP/day
[7] = oral CHP, administration 4× daily
[8] = after completion of treatment, 8 patients, pre dose 0
[9] = after completion of treatment, 8 patients, pre dose 3
[10] = after completion of treatment, 8 patients, pre-dose 0
[11] = repeated oral dose of 3H-CHP for 7 consecutive days

SMILES: O=C(O)[C@@H]1C[C@H](O)CN1 [CHP, cis-4-hydroxy-L-proline]
- Cmax [1, 6]: 52.3 µg/mL
- Tmax [1, 6]: 0.98 h
- half-life [1, 6]: 34.2 h
- MRT inf ([1]; male, human, plasma, healthy subjects, oral 4×2.0 g CHP/day, read-out: MRT (0-inf)): 9.33 h
- Accumulation following oral administration ([1]; multiple oral doses of CHP): extensive
- Time after which a steady state was observed ([1]; multiple oral doses of CHP, 4× daily, simulation of plasma concentration-time curves): approximately 48 h
- Plasma half-life relative to the dosing interval ([1]; oral CHP 4× daily, τ=6 h): approximately 4 times
- Css,min lower if 2.0 g of CHP was administered (versus 3.0 g) [1, 7]: 36%
- Increase of AUCss,t, Css,max and Css,ave when the dose was increased from 2.0 g up to 3.0 g [1, 7]: approximately 50%
- Overall Physical Condition: number of patients rating 5 [2, 8]: 5
- Overall Physical Condition: number of patients rating 6 [2, 8]: 1
- Overall Physical Condition: number of patients rating 7 [2, 8]: 0
- Overall Quality of Life (QoL): number of patients rating 4 [2, 8]: 3
- Overall Quality of Life (QoL): number of patients rating 5 [2, 8]: 3
- Overall Quality of Life (QoL): number of patients rating 6 [2, 8]: 2
- Overall Quality of Life (QoL): number of patients rating 7 [2, 8]: 0
- Overall Physical Condition: number of patients rating 3 [2, 9]: 1
- Overall Physical Condition: number of patients rating 4 [2, 9]: 1
- Overall Quality of Life (QoL): number of patients rating 3 [2, 9]: 0
- Overall Cognitive Conditions: number of patients rating 5 [2, 10]: 3
- Overall Cognitive Conditions: number of patients rating 6 [2, 10]: 1
- Overall Cognitive Conditions: number of patients rating 7 [2, 10]: 0
- Overall Cognitive Conditions: number of patients rating 4 ([2]; after completion of treatment, 8 patients, pre-dose 1): 3
- Overall Cognitive Conditions: number of patients rating 3 ([2]; after completion of treatment, 8 patients, pre-dose 3): 1
- Overall Physical Condition: number of patients rating 2 ([2]; after completion of treatment, scale 1 = Very poor 7 = Excellent, 8 patients, pre dose 2): 0
- Overall Quality of Life (QoL): number of patients rating 2 ([2]; after completion of treatment, scale 1 = Very poor 7 = Excellent, 8 patients, pre dose 5): 0
- Overall Cognitive Conditions: number of patients rating 2 ([2]; after completion of treatment, scale 1 = Very poor 7 = Excellent, 8 patients, pre-dose 4): 0
- Cognitive, physical, emotional conditions and quality of life in comparison to status prior to the start of the treatment ([2]; oral and/or intravenous CHP monotherapy, 90-540 consecutive days, 2-12 gram per day, mild or moderate Alzheimer's disease and dementia): significant improvement
- Adverse events ([2]; patients with mild or moderate Alzheimer's disease): Only mild adverse events
- Penetration of the BBB ([3]; repeated dose of oral aqueous solution of 3H-CHP): Excellent penetration of the BBB
- AUC as % of total administered CHP in cerebrum, cerebelium, brain stem, limbic system and spinal fluid [3, 11]: 14.9%
- AUC as % of total administered CHP in loose connective tissues, cartilage, reticular connective tissue, dense/fibrous connective tissue, bone and bone marrow [3, 11]: 35%
- Half-Life time in cerebrum, cerebelium, brain stem and limbic system [3, 11]: 32.30 to 42.70 h
- Anti-tumour activity in patients [4]: anti-tumour activities
- Collagen IV levels in blood [5]: inhibits significantly
